Reference: patent US20130309736A1, “COMPOSITIONS AND METHODS FOR MALATE AND FUMARATE PRODUCTION” (CARGILL, INCORPORATED, priority 2011, published 2013)

What was measured:
[1] = 15.5° C.; cited from earlier work
[2] = tested on: yeast cells; assay: EMS mutagenesis, kill rate; assay type: cell-based; details: 3 μL EMS in 200 μL cell suspension (OD600 around 10), approximately one hour
Procedure: For example, yeast cells from a fresh YP (yeast extract/peptone)+20 g/L glucose plate or liquid culture (OD600 1-4) are resuspended in sterile water to an OD600 of around 10. 200 μL aliquots of this cell suspension are pipetted into individual tubes and exposed to 3 μL […] (EMS) for approximately one hour, which kills around 65% of the cells. Higher EMS concentrations can also be used to increase the kill rate. After exposure, cells are neutralized with 5% sodium thiosulfate, washed in PBS buffer, recovered in rich media for approximately four hours, and cultured on selective media. Mock samples (no EMS) are also run to ensure that the conditions are selective. Alternatively, cell can be mutagenized using UV irradiation.

[3] = tested on: Candida sorbosivorans CD1978; assay: Growth rate in YPD shake flasks (first secondary screen); assay type: cell-based
Procedure: (§1) For the first secondary screen, growth rates were measured in YPD media containing 0 g/L malate at pH 3.0 or 200 g/L malate at pH 2.85. Shake flasks were inoculated with biomass harvested from seed flasks grown overnight to an OD600 of 6 to 10. 250 mL baffled growth rate flasks (50 mL working volume) were inoculated to an OD600 of 0.1 and grown at 250 rpm and 30° C. Samples were taken throughout the time course of the assay and analyzed for biomass growth via OD600. The resulting OD600 data was plotted and growth rates were established.

[4] = tested on: Issatchenkia orientalis ATCC 60585; assay: as above; assay type: cell-based
Procedure: as §1

[5] = tested on: Candida vanderwaltii MUCL 30000; assay: as above; assay type: cell-based
Procedure: as §1

[6] = tested on: Candida guilliermondii ATCC 20118; assay: as above; assay type: cell-based
Procedure: as §1

[7] = tested on: Candida sorbosivorans CD1978; assay: Glucose consumption rate in YPD shake flasks (second secondary screen); assay type: cell-based
Procedure: (§2) For the second secondary screen, glucose consumption was measured in YPD media containing 0 g/L malate at pH 3.0 or 200 g/L malate at pH 2.85. Shake flasks were inoculated with biomass harvested from seed flasks grown overnight to an OD600 of 6 to 10. 250 mL baffled glycolytic assay flasks (50 mL working volume) were inoculated to an OD600 of 0.1 and grown at 250 RPM and 30° C. Samples were taken throughout the time course of the assay and analyzed for glucose consumption using a 2700 Biochemistry Analyzer (Yellow Springs Instruments, YSI). The resulting data was plotted and glucose consumption rates were established.

[8] = tested on: Issatchenkia orientalis ATCC 60585; assay: as above; assay type: cell-based
Procedure: as §2

[9] = tested on: Candida vanderwaltii MUCL 30000; assay: as above; assay type: cell-based
Procedure: as §2

[10] = tested on: Candida guilliermondii ATCC 20118; assay: as above; assay type: cell-based
Procedure: as §2

[11] = tested on: Saccharomyces bulderi ATCC MYA-404; assay: as above; assay type: cell-based
Procedure: as §2
(§3) The same procedures were utilized to screen, rate, and score the original 91 wild-type yeast strains from the primary screen with media containing 0, 30, 45, and 60 g/L lactic acid at pH 3.0 (˜80% free acid). Due to difficulties in properly scoring some very weak growth that occasionally occurred at 60 g/L, 20 strains were re-tested in the primary screen. Of these 20 strains, eight were eliminated due to very slow growth relative to the rest of the test group. The remaining 12 strains were advanced into secondary screening. The secondary screen for lactic acid was the same as that described above for malate, except for changes in concentrations and pH values. Growth rates were measured at 0 g/L lactic acid, pH 3.0 and 50 g/L lactic acid, pH 2.85, and glucose consumption rates were measured in the presence of 50 g/L lactic acid, pH 2.85. Normalized values and weighted and summed scores were calculated for each strain as described above for malate.

[12] = tested on: Issatchenkia orientalis ATCC 24210; assay: as above; assay type: cell-based
Procedure: as §2, §3

[13] = tested on: Candida lambica ATCC 38617; assay: as above; assay type: cell-based
Procedure: as §2, §3

[14] = tested on: Issatchenkia orientalis CD1822; assay: as above; assay type: cell-based
Procedure: as §2, §3

[15] = tested on: Candida sorbosivorans ATCC 38619; assay: as above; assay type: cell-based
Procedure: as §2, §3

[16] = tested on: Issatchenkia orientalis ATCC PTA-6658; assay: as above; assay type: cell-based
Procedure: as §2, §3

[17] = tested on: seven wild-type yeast strains; assay: Range finding: overnight growth in microtiter wells with malate; assay type: cell-based; details: YPD, 30° C.
Procedure: The range of malate concentrations to utilize in primary screening procedures was determined by evaluating the ability of seven wild-type yeast strains (Candida sonorensis, Candida zemplinina, I. orientalis strain PTA-6658, I. orientalis strain CD1822, Kluyveromyces lactis, K. marxianus, S. cerevisiae strain CENPK 113-7D) to grow on media containing varying levels of malate. Cells were streaked onto YPD plates and grown overnight. A cell slurry with an OD600 of around 4 was made in YPD media, pH 3.0, and this slurry was used to inoculate microtiter wells containing various concentrations of malate to an OD600 of 0.05. Plates were covered with a gas permeable membrane and incubated in a 30° C./300 rpm shaker overnight. The optical densities of each well were measured at a wavelength of 600 nm in a GENios model plate reader (Tecan), and plates were observed visually for growth. The highest malate concentration that one or more of the strains grew in (350 g/L) was chosen as the upper range for primary screening procedure.

[18] = tested on: Saccharomyces bulderi ATCC MYA-404; assay: Growth rate in YPD shake flasks (first secondary screen); assay type: cell-based
Procedure: as §1, §3

[19] = tested on: Issatchenkia orientalis ATCC 24210; assay: as above; assay type: cell-based
Procedure: as §1, §3

[20] = tested on: Candida lambica ATCC 38617; assay: as above; assay type: cell-based
Procedure: as §1, §3

[21] = tested on: Issatchenkia orientalis CD1822; assay: as above; assay type: cell-based
Procedure: as §1, §3

[22] = tested on: Candida sorbosivorans ATCC 38619; assay: as above; assay type: cell-based
Procedure: as §1, §3

[23] = tested on: Issatchenkia orientalis ATCC PTA-6658; assay: as above; assay type: cell-based
Procedure: as §1, §3

[24] = tested on: wild-type yeast strains; assay: Additional primary screen: growth on microtiter plates with malate; assay type: cell-based; details: ten strains of 24 re-tested; 200 g/L malate, pH 2.85, microtiter plates, overnight
Procedure: For the primary screening procedure, 91 wild-type yeast strains were screened for growth on microtiter plates at pH 2.85 with 0 g/L, 150 g/L, 300 g/L, or 350 g/L pH 2.85 malate using the same protocol used for range finding. A fresh YPD plate was used for each strain, and a slurry with an OD600 of around 4 was made in YPD media, pH 3.0. The slurry was used to inoculate each well to an OD600 of 0.05. Plates were covered with a gas permeable membrane, and incubated in a 30° C./300 rpm shaker overnight. Optical densities of each well were measured at 600 nm in a GENios model plate reader, and plates were observed visually for growth. To account for plate-to-plate variability, I. orientalis PTA-6658 was included on all plates as a control. […] As such, an additional screen was added wherein the 24 strains that grew as well or better than the I. orientalis control strain were re-tested. […] These ten strains were advanced to the secondary screens. […] However, it is possible that one or more such strains could nonetheless meet the minimum requirements for a commercially viable fermentation process.

[25] = malate, slope of growth rates against acid concentration, scale 0 to 1
[26] = Candida sorbosivorans ATCC 24120, scale 0 to 1
[27] = Candida sorbosivorans ATCC 38619, YPD, 30° C.

SMILES: O=C(O)/C=C/C(=O)O [Fumarate, trans-butanedioic acid]
- water solubility [1]: 4.28 g/kg H2O

SMILES: CCOS(C)(=O)=O [ethane methyl sulfonate]
- cells killed [2]: around 65%

SMILES: O=C(O)CC(O)C(=O)O (stereo not drawn) [malate, hydroxybutanedioc acid]
- Growth rate 200 g/L malate (pH 2.85) ([3]; YPD, 30° C.): 0.34 h^−1
- Normalized grade: Growth rate slope [3, 25]: 0.00
- Normalized grade: Growth rate 200 g/L malate (pH 2.85) ([3]; scale 0 to 1): 0.09
- Growth rate 200 g/L malate (pH 2.85) ([4]; YPD, 30° C.): 0.36 h^−1
- Normalized grade: Growth rate slope [4, 25]: 0.54
- Normalized grade: Growth rate 200 g/L malate (pH 2.85) ([4]; scale 0 to 1): 0.27
- Growth rate 200 g/L malate (pH 2.85) ([5]; YPD, 30° C.): 0.39 h^−1
- Normalized grade: Growth rate slope [5, 25]: 0.92
- Normalized grade: Growth rate 200 g/L malate (pH 2.85) ([5]; scale 0 to 1): 0.55
- Growth rate 200 g/L malate (pH 2.85) ([6]; YPD, 30° C.): 0.42 h^−1
- Normalized grade: Growth rate slope [6, 25]: 1.00
- Normalized grade: Growth rate 200 g/L malate (pH 2.85) ([6]; scale 0 to 1): 0.82
- Glucose consumption rate 200 g/L malate (pH 2.85) ([7]; YPD, 30° C.): 1.85 g L^−1 h^−1
- Normalized grade: Glucose consumption rate 200 g/L malate (pH 2.85) ([7]; scale 0 to 1): 0.28
- Glucose consumption rate 200 g/L malate (pH 2.85) ([8]; YPD, 30° C.): 2.7 g L^−1 h^−1
- Normalized grade: Glucose consumption rate 200 g/L malate (pH 2.85) ([8]; scale 0 to 1): 0.70
- Glucose consumption rate 200 g/L malate (pH 2.85) ([9]; YPD, 30° C.): 1.3 g L^−1 h^−1
- Normalized grade: Glucose consumption rate 200 g/L malate (pH 2.85) ([9]; scale 0 to 1): 0.00
- Glucose consumption rate 200 g/L malate (pH 2.85) ([10]; Candida guilliermondii ATCC 20118, YPD, 30° C.): 1.9 g L^−1 h^−1
- Normalized grade: Glucose consumption rate 200 g/L malate (pH 2.85) ([10]; Candida guilliermondii, scale 0 to 1): 0.30
- Glucose consumption rate 200 g/L malate (pH 2.85) ([11]; YPD, 30° C.): 3.15 g L^−1 h^−1
- Normalized grade: Glucose consumption rate 200 g/L malate (pH 2.85) ([11]; scale 0 to 1): 0.93
- Glucose consumption rate 200 g/L malate (pH 2.85) ([12]; YPD, 30° C.): 3.1 g L^−1 h^−1
- Normalized grade: Glucose consumption rate 200 g/L malate (pH 2.85) ([12]; scale 0 to 1): 0.90
- Glucose consumption rate 200 g/L malate (pH 2.85) ([13]; YPD, 30° C.): 3.2 g L^−1 h^−1
- Normalized grade: Glucose consumption rate 200 g/L malate (pH 2.85) ([13]; scale 0 to 1): 0.95
- Glucose consumption rate 200 g/L malate (pH 2.85) ([14]; YPD, 30° C.): 3.3 g L^−1 h^−1
- Normalized grade: Glucose consumption rate 200 g/L malate (pH 2.85) ([14]; scale 0 to 1): 1.00
- Normalized grade: Glucose consumption rate 200 g/L malate (pH 2.85) [15, 26]: 0.05
- Glucose consumption rate 200 g/L malate (pH 2.85) [15, 27]: 1.4 g L^−1 h^−1
- Glucose consumption rate 200 g/L malate (pH 2.85) ([16]; YPD, 30° C.): 3.3 g L^−1 h^−1
- Normalized grade: Glucose consumption rate 200 g/L malate (pH 2.85) ([16]; scale 0 to 1): 1.00
- highest malate concentration that one or more of the strains grew in [17]: 350 g/L
- Growth rate 200 g/L malate (pH 2.85) ([18]; YPD, 30° C.): 0.39 h^−1
- Normalized grade: Growth rate slope [18, 25]: 1.00
- Normalized grade: Growth rate 200 g/L malate (pH 2.85) ([18]; scale 0 to 1): 0.55
- Growth rate 200 g/L malate (pH 2.85) ([19]; YPD, 30° C.): 0.39 h^−1
- Normalized grade: Growth rate slope [19, 25]: 0.56
- Normalized grade: Growth rate 200 g/L malate (pH 2.85) ([19]; scale 0 to 1): 0.55
- Growth rate 200 g/L malate (pH 2.85) ([20]; YPD, 30° C.): 0.33 h^−1
- Normalized grade: Growth rate slope [20, 25]: 0.41
- Normalized grade: Growth rate 200 g/L malate (pH 2.85) ([20]; scale 0 to 1): 0.00
- Growth rate 200 g/L malate (pH 2.85) ([21]; YPD, 30° C.): 0.42 h^−1
- Normalized grade: Growth rate slope [21, 25]: 0.67
- Normalized grade: Growth rate 200 g/L malate (pH 2.85) ([21]; scale 0 to 1): 0.82
- Normalized grade: Growth rate slope ([22]; Candida sorbosivorans ATCC 24120, malate, slope of growth rates against acid concentration, scale 0 to 1): 0.92
- Normalized grade: Growth rate 200 g/L malate (pH 2.85) [22, 26]: 0.36
- Growth rate 200 g/L malate (pH 2.85) [22, 27]: 0.37 h^−1
- Growth rate 200 g/L malate (pH 2.85) ([23]; YPD, 30° C.): 0.44 h^−1
- Normalized grade: Growth rate slope [23, 25]: 0.67
- Normalized grade: Growth rate 200 g/L malate (pH 2.85) ([23]; scale 0 to 1): 1.00
- optical density relative to the same strain in 0 g/L malic acid [24]: greater than or equal to 50%
